Laboratory results from patent US20100204144A1, “USE OF THE PEPTIDES MAIPPKKNQDK (COW KAPPA CASEIN 106-116) AND/OR YGFQNA (SERORPHIN) AS THERAPEUTIC AGENTS” (priority 2007, published 2010).
Where no end group is shown, it is not given here.

Columns and labels:
HIV-1IIIB = test: HIV-1 antiviral assay in CEM-SS cells (MTS read-out of virus cell killing)
[1] = system: hepatitis B virus (HBV) ayw strain; test: HBV assay in HepG2-2.2.15 cells (secreted HBV DNA, TaqMan PCR); type: cell-based; settings: 10 micrograms per ml, six days, HBV DNA in supernatant
Text: HepG2-2.2.15 is a stable cell line containing the hepatitis B virus (HBV) ayw strain genome (ATCC Cat. No. CRL-11997). Antiviral compounds blocking any late step of viral replication such as transcription, translation, pregenome encapsidation, reverse transcription, particle assembly and release can be identified and characterized using this cell line. In this assay, an active compound will reduce the production of secreted HBV from cells, measured by utilizing real time quantitative PCR (TaqMan) assay to directly and accurately measure HBV DNA copies.
HepG2-2.2.15 cells were plated in 96-well microtiter plates. After 16-24 hours the confluent monolayer of HepG2-2.2.15 cells was washed and the medium was replaced with complete medium containing test peptides—10 micrograms per ml—in duplicate. […] Six days following the initial administration of the peptides, the cell culture supernatants was collected, treated with pronase and DNAse and then used in a real-time quantitative TaqMan PCR assay. The PCR-amplified HBV DNA was detected in real-time by monitoring increases in fluorescence signals that result from the exonucleolytic degradation of a quenched fluorescence probe molecule that hybridizes to the amplified HBV DNA. […] Antiviral activity was calculated from the reduction in HBV DNA levels (% virus control). […]

[2] = system: Human Peripheral Blood Mononuclear Cells (PBMC), B cell proliferation; test: B cell proliferation assay (SAC plus Interleukin-2, 3H-thymidine); type: cell-based; settings: 10 micrograms per ml; SAC plus IL-2 stimulated PBMC
Experimental: Human Peripheral Blood Mononuclear Cells (PBMC) were obtained from normal human donors. The B cell proliferation was induced by stimulation of the cells with the B cell mitogen Staphylococcus aureus Cowans I (SAC) plus Interleukin-2, either in the absence (positive proliferation control), or in the presence of test peptides—10 micrograms per ml—to examine their effects on the B cell response. 10^5/well PBMC were plated in 96-well microtiter plates and assayed in duplicate with the peptides. […] At the end of incubation time, the plates were harvested and the cells counted by liquid scintillation for the incorporation of ^3H-thymidine as a measure of B cell proliferation.

[3] = system: IL-2, IL-4, IL-5, IFN-γ and TNF-α protein levels of spleen cells; test: Th1/Th2 cytokine profiling assay (Ovalbumin-restimulated spleen cells, CBA kit); type: cell-based, Balb/c mice; settings: 10 micrograms per ml; Ovalbumin restimulation, 72 hours
Text: The Balb/c mice (originated in 1923, it is a popular strain and is used in many different research disciplines. Also classified as an inbred from the production of 20 or more successive brother-sister matings, the Balb/c mouse is albino and small in size) were immunized on Days 1, 15, and 29 with Ovalbumin (Ovalbumin is the main protein found in egg white, commonly used to stimulate an immunological reaction in test animals) in PBS (5 micrograms/injection). On day 50, spleens of the mice were harvested (3 weeks after last boost with Ovalbumin). […] Thereafter, additional Ovalbumin was added to the cells at 10 micrograms/ml for in vitro restimulation of the cells. 72 hours later, cell supernatants were harvested and assayed using the Becton Dickinson Mouse Th1/Th2 Cytokine CBA Kit. This kit can be used to measure Interleukin-2 (IL-2), Interleukin-4 (IL-4), Interleukin-5 (IL-5), Interferon-γ (IFN-γ), and Tumor Necrosis Factor-α (TNF-α) protein levels in a single sample.

[4] = system: Primary Human endothelial cells (HUVEC); test: Endothelial cell migration assay; type: cell-based; settings: 10 micrograms per ml, 22 hours
Experimental: Thereafter, designated concentration of testing peptides -10 micrograms per ml—was added in duplicate wells.

HUVEC = test: Endothelial tube formation assay; type: cell-based, human; settings: 10 micrograms per ml, 20 hours
Text: Positive control was vehicle only.

[5] = system: cyclic AMP generation in human peripheral blood mononuclear cells (PBMC); test: cAMP induction assay (ELISA); type: cell-based; settings: 10 min at 37° C.
Experimental: The cAMP kit was used as an immunoassay for the quantitative determination of cyclic AMP generation in human peripheral blood mononuclear cells (PBMC). PBMC were placed in 96-well microtitier plates (50 microliters of cells at 4×10^6/ml) and 50 microliters of medium alone (background control), forskolin (cAMP positive control; 50 micrograms per ml), or test peptides were added. Plates were mixed and incubated for 10 min at 37° C. and the cells were lysed by the addition of 50 microliters of 3% perchloric acid. NaOH was added to neutralize the samples. Plates were centrifuged for 15 min at 2500 rpm and the supernatants removed. The supernatants (diluted 2-fold in assay buffer) were then assayed for the levels of cAMP by ELISA.

Molecule | antiviral activity of positive control compounds (HIV-1) (HIV-1IIIB) | inhibition of HBV replication as compared to the virus control infection [1] [%] | inhibition of the proliferation of specifically stimulated human B-cells [2] [%] | IFNγ spleen cells; TH1 response (% of control) [3] | IL-2 spleen cells (% of control) [3] | IL-4 spleen cells; TH2 response (% of control) [3] | IL-5 spleen cells; TH2 response (% of control) [3] | TNF-a spleen cells; TH1 response (% of control) [3] | induction of the migration of human endothelial cells [4] [%] | inhibition of the tube formation of endothelial cells (HUVEC) [%] | induction of cAMP formation in human peripheral blood cells [5] [%]
CC(C)(C)NC(=O)[C@@H]1CN(Cc2cccnc2)CCN1C[C@@H](O)C[C@@H](Cc1ccccc1)C(=O)N[C@H]1c2ccccc2C[C@H]1O [indinavir] | expected levels of antiviral activity |  |  |  |  |  |  |  |  |  | 
Met-Ala-Ile-Pro-Pro-Lys-Lys-Asn-Gln-Asp-Lys-OH (MAIPPKKNQDK-OH) [peptide 1] |  | 29.4 | 21.2 | 63.4 % of control | 0.0 % of control | 0.0 % of control | 57.1 % of control | 74.9 % of control | 22 | 23 | 5.3
Tyr-Gly-Phe-Gln-Asn-Ala-OH (YGFQNA-OH) [peptide 2] |  | 35.7 | 7.1 | 48.2 % of control | 0.0 % of control | 0.0 % of control | 42.2 % of control | 81.4 % of control | 26 | 21 | 1.8
Cc1cn([C@H]2C[C@H](N=[N+]=[N-])[C@@H](CO)O2)c(=O)[nH]c1=O [AZT] | expected levels of antiviral activity |  |  |  |  |  |  |  |  |  | 
